Reference: patent EP4732839A1, “USE OF COMPOUND IN TREATMENT OF LIVER DISEASES” (priority 2023, dated 2025)

Legend:
[1] = system: IFN-α, IP-10, IL-6, and TNF-α; experiment: Liver safety: cytokine ELISA in liver tissue; type: in vivo, C57BL/6J wild-type female mice
Protocol: (§1) C57BL/6J wild-type female mice (6 weeks old) were randomly grouped. After administration at different doses, whole blood and liver tissues of the mice were separately collected at 1 h, 2 h, and 4 h for detection of a plurality of parameters to evaluate the effect of the drugs on the liver.
(§2) Liver tissues and blood were collected at 1 h, 2 h, and 4 h after single dosing.
(§3) The supernatant was collected and stored (-20 °C); • (3) IFN-α, IP-10, IL-6, and TNF-α were detected using an ELISA kit. • (C) Remaining liver tissue-HE staining and pathological evaluation. • (D) 1/2 blood (whole blood)-liver function parameter detection: AST (aspartate aminotransferase), ALT (alanine aminotransferase/glutamate pyruvate transaminase), ALP (alkaline phosphatase), ALB (albumin), and GGT (γ-glutamyl transferase). • (E) 1/2 blood-serum preparation-reserve for ELISA.

[2] = system: ISG15, ISG56, Mx1, and Oaslb; experiment: Liver safety: qPCR of interferon-related genes in liver tissue; type: in vivo, C57BL/6J wild-type female mice
Protocol: as §1, §2, §3

[3] = type: in vivo, C57BL/6J wild-type female mice
Protocol: as §1, §2, §3

hepatitis B virus (HBV) = experiment: Anti-hepatitis B virus activity in HBV-infected primary human hepatocytes; type: cell-based, HBV type B; conditions: HBV-infected PHHs
Protocol: The culture supernatant from one donor (donor 1) was selected to stimulate HBV-infected primary hepatocytes (PHHs), and interferon α and nucleoside analog entecavir (ETV) were selected as positive controls. The experimental procedures were as follows (FIG. 14a), and the detailed procedures were as follows: On day -1, cryopreserved PHHs were thawed and adjusted to a density of 6 × 10^5 cells/mL, and the PHHs were seeded into a 48-well plate at 0.22 mL/well.
On day 0, the PHHs were infected with HBV type B at 600 GE/cells.
On day 1, the culture medium was replaced with a fresh one, and reference compounds ETV and Peg-IFN-α2a (Pegasys-Roche) were added to the cells to treat the cells. The reference compounds ETV and Peg-IFN-α2a for the PHHs were each prepared at one concentration, with three replicate wells.
The PBMC supernatants were each prepared at 4 test concentrations, diluted at a ratio of 1:4, and then added to the cells. Three replicate wells were made for each test condition. The culture medium was replaced with a fresh culture medium containing the PBMC supernatants and the reference compounds on days 5, 7, 9, and 11. On day 13, the cell supernatants were collected and the cell viability was detected using CCK-8.
The content of HBV DNA in the supernatants was determined by qPCR according to the kit instructions. HBsAg and HBeAg levels in the supernatants were determined by ELISA.

Hep3B-luc = Hep3B-luc liver orthotopic xenograft mouse model; conditions: Hep3B-luc liver orthotopic tumor model, 3 mg/kg
in vivo = experiment: in vivo
Protocol: C57BL/6 mice, 8 weeks old, female/male, 27, supplier: SPF (Beijing) Biotechnology Co., Ltd.
The body weight of the animals was measured and recorded daily.
All groups were subjected to clinical observations before administration and 1 to 2 h after administration, and additional observations were performed if necessary. Deaths and mortality were checked twice daily. The observations should include, but are not limited to, the following: fur condition, activity, mental status, vomiting, diarrhea, and abnormal secretions around the eyes. All animals should be observed on the day of necropsy, and any abnormal findings should be recorded.
The rectal temperature of all animals was measured and recorded at 0 h before administration and at 2 h, 4 h, 8 h and 24 h after administration.
The experiment was terminated on day 7 after administration. A gross necropsy was performed to examine abdominal and thoracic organs for lesions, and the spleen and liver were collected for weighing.

[4] = Solubility in phosphate buffer at pH 7.4
[5] = Liver microsome metabolic stability (human); conditions: Human liver microsomes, 1 µM compound, 1 mg/mL, NADPH, 37 °C
Protocol: The metabolic stability of the compounds in in vitro liver microsomes was evaluated. The procedures and steps were as follows: At 37 °C, 1 µM of the compounds was incubated in 1 mg/mL liver microsomes. The reaction system was a 0.1 M potassium phosphate buffer (pH 7.4) containing 3 mmol/L MgCl2 and 1 mmol/L NADPH. At the beginning of the reaction, the small molecules and the liver microsomes were pre-incubated at 37 °C for 10 min, and subsequently a cofactor NADPH was added to initiate the metabolic reaction. The reaction was quenched at 0 min, 5 min, 10 min, 20 min, 30 min, and 60 min using three volumes of ice-cold methanol containing an internal standard (200 nM labetalol). After incubation at room temperature for 10 min, the samples were centrifuged at 4000 rpm at 4 °C for 20 min, and the supernatants were collected, diluted with chromatography-grade purified water in a 1:1 ratio, and then subjected to quantitative analysis. […] After a 6-minute chromatographic separation on a C18 column (50 × 2.1 mm; 2.6 µm) under a gradient mobile phase of 0.1% formic acid in water, the peaks corresponding to specified ionic signals were detected. […] The detailed operation process was as follows: • 1) The compound working solution was added to all 96-well reaction plates (T0, T5, T10, T20, T30, and T60) at 10 µL/well, except the blank wells. • 2) The microsomal solution was added to all the reaction wells (T0, T5, T10, T20, T30, T60, and blank wells) at 80 µL/well. • 3) The plates were pre-incubated at 37 °C for 10 min. • 4) After pre-incubation, NADPH was added to each reaction plate at 10 µL/well to initiate the reaction. • 5) At the set end time point, a 4 °C methanol solution (containing an internal standard: 200 nM labetalol) was added to each reaction plate at 300 µL/well to quench the reaction. • 6) Each plate was sealed and shaken for 10 min. • 7) The mixture was shaken well and centrifuged at 4000 rpm at 4 °C for 20 min. • 8) 300 µL of the supernatant was collected, and HPLC-grade water was added at 300 µL/well. The mixture was well mixed and then subjected to LC-MS analysis.
The metabolic half-life (T1/2) and the metabolic clearance rate (CLint(mic)) (µL/min/mg) were calculated using a first-order kinetic equation.

[6] = C57BL/6 mice, single intragastric administration

## COCCNc1nc(N)nc2ccc(Cc3ccc(CN4CCOCC4)cc3)nc12 [Compound II]
[1]; 3/10/20 mpk groups i.g. single dose, 1 h, 2 h, 4 h
  expression levels of IL-6, TNF-α, IFN-α, and IP-10: all peaked at 2 h, and decreased at 4 h
[1]; i.g. single dose
  IP-10 (CXCL-10) secretion: significantly induced
[2]; 3/10/20 mpk i.g. single dose, 1 h to 4 h
  relative expression levels of ISG15, ISG56, Mx1, and oas1b: increased over time, and peaked at 4 h
[2]; dose of 3 mpk (pharmacodynamic dose)
  mRNA expression level of interferon-related genes: significantly induced an increase
[3]; all administration groups, no statistically significant differences
  AST levels: exceeded the normal reference range
[3]; all dose groups
  ALP levels: within the normal reference value range
  GGT levels: significantly lower than that of the control group
[3]; at 2 h and 4 h
  ALB level: significantly lower than that of the control group
[3]; single administration, Grade 1 AE = ALT exceeding three times the normal value
  ALT elevation by clinical adverse reaction grading: did not result in ALT elevation to grade 1 AE
[3]; whole blood, 3/10/20 mpk i.g. single dose, 1 h, 2 h, 4 h
  ALT: increased in all groups
Hepatitis B virus (HBV); PBMC supernatant (donor 1)
  activity for inhibiting HBV DNA compared with Peg-IFN-α2a (100 IU/mL): comparable
  activity for reducing hepatitis B surface antigen compared with Peg-IFN-α2a (100 IU/mL): slightly stronger
  anti-HBV activity compared with GS-9688: significantly stronger
Hepatitis B virus (HBV); agonist-treated PBMC supernatant (donor 1) or reference compound, supernatant ELISA day 13
  levels of surface antigens HBeAg and HBsAg: significantly reduced
Hepatitis B virus (HBV); agonist-treated PBMC supernatant (donor 1) or reference compound, supernatant qPCR day 13
  level of HBV DNA: significantly reduced
Hep3B-luc
  maximum body weight loss: 5.4%
Hep3B-luc; IG, QW × 3, p < 0.05
  TGI: 61.6%
MC38-luc; MC38-luc liver metastasis model, compound II 3 mpk IG QW × 3, PD-1 10 mpk IP BIW × 2
  maximum body weight loss rate: 3.9%
MC38-luc; MC38-luc liver metastasis model, compound II 3 mpk IG QW × 3, PD-1 10 mpk IP BIW × 2, 17 days post-dose
  TGI: 63.3%
MC38-luc; flow cytometry, compared with vehicle group
  CD8+ T cells in peripheral lymph nodes: no significant difference
MC38-luc; flow cytometry, compared with vehicle group and PD-1 antibody group
  Kuffer cells in the liver tissue: significantly induced an increase
In vivo; 20 mg/kg, group 6, male animal No. 35, day 2
  Cage-side observation: white secretions around the eyes
In vivo; 2 h after treatment, significant difference vs vehicle group, returned to normal 4 h, 8 h and 24 h
  rectal temperature: decreased
In vivo; [6]
  Adverse reactions at maximum tolerated dose/probability: White secretion around the eyes (1/6)
  Weight loss at maximum tolerated dose: whether recovered: Yes
  Weight loss rate at maximum tolerated dose: 14%
  With or without mouse death: No
In vivo; male and female animals, 10-40 mg/kg single administration, began to recover from day 3 to day 7
  body weight: decreased after the single administration
In vivo; mouse, in vivo, po
  MTD at 168 h: 40 mg/kg
[4]
  solubility improvement compared with N01(D18): about 10 fold
[5]
  k: 0.0197 L/min
